One assay addresses T1, IKKε (Homo sapiens, UniProt Q14164).
T1 construct: His-tag; made in house; host or cells: Sf9 insect cells
T1 sequence (Q14164 1-716): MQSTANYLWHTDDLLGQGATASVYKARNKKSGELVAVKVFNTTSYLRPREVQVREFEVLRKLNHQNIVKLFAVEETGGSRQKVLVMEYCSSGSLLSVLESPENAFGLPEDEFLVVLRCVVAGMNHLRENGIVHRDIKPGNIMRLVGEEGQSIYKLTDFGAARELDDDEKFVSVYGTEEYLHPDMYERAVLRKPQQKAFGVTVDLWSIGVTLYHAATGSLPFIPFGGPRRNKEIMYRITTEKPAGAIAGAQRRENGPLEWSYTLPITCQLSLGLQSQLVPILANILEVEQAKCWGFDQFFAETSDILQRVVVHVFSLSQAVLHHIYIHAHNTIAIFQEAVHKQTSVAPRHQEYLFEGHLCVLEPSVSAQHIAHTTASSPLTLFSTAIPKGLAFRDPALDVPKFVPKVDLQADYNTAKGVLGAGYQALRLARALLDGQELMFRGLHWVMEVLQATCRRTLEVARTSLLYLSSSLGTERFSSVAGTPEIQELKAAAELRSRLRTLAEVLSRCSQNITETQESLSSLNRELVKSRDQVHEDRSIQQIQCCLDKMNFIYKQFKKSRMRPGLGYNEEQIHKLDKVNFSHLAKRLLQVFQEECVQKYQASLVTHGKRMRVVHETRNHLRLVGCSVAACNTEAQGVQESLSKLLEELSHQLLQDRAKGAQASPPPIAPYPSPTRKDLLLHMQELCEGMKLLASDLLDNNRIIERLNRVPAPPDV
The assay can be described thus: In-vitro IKKε kinase assay ([γ33]ATP filter-plate). In kind it is biochemical. As to conditions: text bins; read-out: IC50 for inhibition of the kinase activity of IKKε. In a few lines:
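Phosphorylation of casein or myelin basic protein was counted by P-81 filter capture after 30-45 min reactions stopped with phosphoric acid, with counts normalized to DMSO after background subtraction. ATP was twice Km: 60 μM for TBK1 and 32 μM for IKKε, plus [γ33]ATP. Sf9-expressed His-tag enzymes were used at normal/sensitized levels of 0.1/0.02 μg/ml (TBK1) and 0.1/0.015 μg/ml (IKKε).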

The test system of assay [1] is IKKε-mediated phosphorylation of IRF3. Put plainly: In-situ phosphorylation of IRF3 (pIRF3 Ser396 ELISA) in HEK293T cells cotransfected with IRF3 and IKKε. Type of assay: cell-based. Particulars: Homo sapiens, HEK-293T; HEK293T cells, 20 hours, text bins; read-out: IC50 for inhibition of the in-situ IKKε-mediated phosphorylation of IRF3. The protocol: HEK293T cells were cotransfected in a 10-cm dish with IRF3 and IKKε expression plasmids using Lipofectamine 2000 (Invitrogen, Carlsbad, Calif.). The following day, cells were replated at 20,000 per well in 96-well plates and treated with test compounds (compounds according to Formula I) for 20 hours. Cell lysates were prepared and analyzed using an ELISA for phospho-Ser396 (anti-IRF3 capture antibody, Santa Cruz Biotechnology, Inc., Santa Cruz, Calif.; anti-p-Ser396 IRF3 detection antibody, Cell Signaling, Danvers, Mass.). pIRF3 levels in compound treated cells were normalized to DMSO treated cells (no compound). Cell viability was assayed in a parallel set of plates to monitor cytotoxic effects of the test compounds (CellTiter-Glo, Promega, Inc., Madison, Wis.). TBK1 activity was tested by Western blotting using a phospho-specific IRF7 antibody. Similar to above, HEK293T cells were transfected with IRF7 and TBK1 expression plasmids. Cells were seeded in 12-well plates at 150,000 per well and treated overnight with test compounds. Protein lysates were prepared and processed for Western blotting followed by detection using a phosphor-Ser477/Ser479 IRF7 antibody (BD Biosciences, San Jose, Calif.)

Drawing on patent publication US20150352108A1, “AMINO-PYRIMIDINE COMPOUNDS AS INHIBITORS OF TBK1 AND/OR IKK EPSILON” (Alzheimer's Institute of America, priority 2009, published 2015), this text covers IC50 for 23 compounds.

By IC50 is commonly meant the midpoint of a concentration-inhibition curve.

SMILES strings stand for the structures. A value given as a limit tells only on which side of the number the result lay.

Consider `COc1cc(Nc2nccc(-c3ccc(OCC(C)C)c(C#N)c3)n2)ccc1CN1CC(OC)C1` [compound 600, 5-[2-({3-Methoxy-4-[(3-methoxyazetidin-1-yl)methyl]phenyl}amino)pyrimidin-4-yl]-2-(2-methylpropoxy) benzonitrile], for which the half-maximal inhibitory concentration (IC50) at IKKε was in the range of 5 to 50 nM; in assay [1] it was 100 to 250 nM.

With `N#Cc1cc(-c2ccnc(Nc3ccc(-n4cnnc4)cc3)n2)ccc1OC1CCOCC1` [compound 607, 2-(Tetrahydro-2H-pyran-4-yloxy)-5-(2-{[4-(4H-1,2,4-triazol-4-yl)phenyl]amino}pyrimidin-4-yl)benzonitrile], the concentration for half-maximal inhibition (IC50) on IKKε is less than 5 nM; in assay [1], 100 to 250 nM.

`Cc1ccc(Nc2nccc(-c3ccc(OC4CCOCC4)c(C#N)c3)n2)cc1NCCN(C)C` [compound 628, 5-[2-[[3-(2-dimethylamino-ethylamino)-4-methyl-phenyl]amino}pyrimidin-4-yl]-2-tetrahydropyran-4-yloxy-benzonitrile]: the IC50 at IKKε was less than 5 nM; in assay [1], less than 100 nM.

With `Cc1nccn1Cc1ccc(Nc2nccc(-c3ccc(OC4CCOCC4)c(C#N)c3)n2)cc1` [compound 609, 5-[2-({4-[(2-Methyl-1H-imidazol-1-yl)methyl]phenyl}amino)pyrimidin-4-yl]-2-(tetrahydro-2H-pyran-4-yloxy)benzonitrile], the IC50 on IKKε was less than 5 nM; in assay [1], less than 100 nM.

Take `N#Cc1cc(-c2ccnc(Nc3cccc(CN4CCOCC4)c3)n2)ccc1OC1CCOCC1` [compound 638, 5-(2-{[3-(Morpholin-4-ylmethyl)phenyl]amino}pyrimidin-4-yl)-2-(tetrahydro-2H-pyran-4-yloxy)benzonitrile]: the half-inhibitory concentration (IC50) is less than 5 nM at IKKε and less than 100 nM in assay [1].

Take `N#Cc1cc(-c2ccnc(Nc3ccc(F)c(OCC4COCCN4)c3)n2)ccc1OC1CCOCC1` (stereo not shown) [compound 545]: the IC50 on IKKε is less than 5 nM; in assay [1], 250 to 500 nM.

Regarding `N#Cc1cc(-c2ccnc(Nc3cccc(CN4CCCC4)c3)n2)ccc1OC1CCOCC1` [compound 542, 5-(2-{[3-(Pyrrolidin-1-ylmethyl)phenyl]amino}pyrimidin-4-yl)-2-(tetrahydro-2H-pyran-4-yloxy)benzonitrile], the IC50 was less than 5 nM at IKKε and less than 100 nM in assay [1].

Turning to `CN(C)CCN(C)c1cccc(Nc2nccc(-c3ccc(OC4CCOCC4)c(C#N)c3)n2)c1` [compound 661], the IC50 on IKKε was less than 5 nM; in assay [1], less than 100 nM.

For the compound `COCCC(=O)Nc1cccc(Nc2nccc(-c3ccc(OC4CCOCC4)c(C#N)c3)n2)c1` [compound 538, N-[3-({4-[3-Cyano-4-(tetrahydro-2H-pyran-4-yloxy)phenyl]pyrimidin-2-yl}amino)phenyl]-3-methoxypropanamide], the IC50 on IKKε is less than 5 nM; in assay [1], less than 100 nM.

For the compound `C[C@@H](O)C(=O)Nc1cccc(Nc2nccc(-c3ccc(OC4CCOCC4)c(C#N)c3)n2)c1` [compound 659, (2R)-N-[3-({4-[3-Cyano-4-(tetrahydro-2H-pyran-4-yloxy)phenyl]pyrimidin-2-yl}amino)phenyl]-2-hydroxypropanamide], the values for the 50% inhibitory concentration (IC50) (on IKKε; in assay [1]) were less than 5 nM and 100 to 250 nM, respectively.

In the case of `N#Cc1cc(-c2ccnc(Nc3ccc4[nH]cnc4c3)n2)ccc1OC1CCOCC1` [compound 583, 5-[2-(1H-Benzimidazol-5-ylamino)pyrimidin-4-yl]-2-(tetrahydro-2H-pyran-4-yloxy)benzonitrile], the IC50 was less than 5 nM at IKKε and 250 to 500 nM in assay [1].

For the compound `N#Cc1cc(-c2ccnc(Nc3ccc(Cn4cnnn4)cc3)n2)ccc1OC1CCOCC1` [compound 629, 2-(Tetrahydro-2H-pyran-4-yloxy)-5-(2-{[4-(1H-tetrazol-1-ylmethyl)phenyl]amino}pyrimidin-4-yl)benzonitrile], the 50% inhibitory concentration (IC50) at IKKε is less than 5 nM; in assay [1], less than 100 nM.

On to `COc1cc(Nc2nccc(-c3ccc(OCC4CC4)c(C#N)c3)n2)ccc1CN1CC(OC)C1` [compound 617, 2-(Cyclopropylmethoxy)-5-[2-({3-methoxy-4-[(3-methoxyazetidin-1-yl)methyl]phenyl}amino)pyrimidin-4-yl]benzonitrile], for which the 50% inhibitory concentration (IC50) was less than 5 nM at IKKε and 100 to 250 nM in assay [1].

Consider `CC(C)COc1ccc(-c2ccnc(Nc3ccc(N4CCN(CCO)CC4)cc3)n2)cc1C#N` [compound 442, 5-[2-({4-[4-(2-Hydroxyethyl)piperazin-1-yl]phenyl}amino)pyrimidin-4-yl]-2-(2-methylpropoxy) benzonitrile], for which the IC50 on IKKε is less than 5 nM; in assay [1] it was less than 100 nM.

As to `N#Cc1cc(-c2ccnc(Nc3ccc(N4CCN(CCO)CC4)cc3)n2)ccc1OC1CCOCC1` [compound 512, 5-[2-({4-[4-(2-hydroxyethyl)piperazin-1-yl]phenyl}amino)pyrimidin-4-yl]-2-(tetrahydro-2H-pyran-4-yloxy)benzonitrile], the IC50 on IKKε was less than 5 nM; in assay [1], less than 100 nM.

Take `CCN(CC)CCOc1cc(Nc2nccc(-c3ccc(OC4CCN(C(=O)[C@H](C)O)CC4)c(C#N)c3)n2)ccc1F` [compound 577, 5-[2-({3-[2-(Diethylamino)ethoxy]-4-fluorophenyl}amino)pyrimidin-4-yl]-2-({1-[(2S)-2-hydroxypropanoyl]piperidin-4-yl}oxy)benzonitrile]: the values for the half-inhibitory concentration (IC50) (on IKKε; in assay [1]) were less than 5 nM and 250 to 500 nM, respectively.

Turning to `CCc1cccc(Nc2nccc(-c3ccc(O[C@@H]4CCN(C(=O)CO)C4)c(C#N)c3)n2)c1` [compound 544, 5-{2-[(3-Ethylphenyl)amino]pyrimidin-4-yl}-2-{[(3R)-1-(hydroxyacetyl)pyrrolidin-3-yl]oxy}benzonitrile], the half-maximal inhibitory concentration (IC50) at IKKε was less than 5 nM; in assay [1] it was 250 to 500 nM.

With `COC1CN(C(=O)Nc2cccc(Nc3nccc(-c4ccc(OC5CCOCC5)c(C#N)c4)n3)c2)C1` [compound 668, N-[3-({4-[3-Cyano-4-(tetrahydro-2H-pyran-4-yloxy)phenyl]pyrimidin-2-yl}amino)phenyl]-3-methoxyazetidine-1-carboxamide], the 50% inhibitory concentration (IC50) at IKKε is less than 5 nM; in assay [1] it was 250 to 500 nM.

Take `COc1cc(Nc2nccc(-c3ccc(OC4CCOCC4)c(C#N)c3)n2)ccc1-n1cnnn1` [compound 664, 5-(2-{[3-Methoxy-4-(1H-tetrazol-1-yl)phenyl]amino}pyrimidin-4-yl)-2-(tetrahydro-2H-pyran-4-yloxy)benzonitrile]: the half-maximal inhibitory concentration (IC50) on IKKε is less than 5 nM; in assay [1], less than 100 nM.

Regarding `Cn1ccc(C(=O)Nc2cccc(Nc3nccc(-c4ccc(OC5CCOCC5)c(C#N)c4)n3)c2)n1` [compound 547, N-[3-({4-[3-Cyano-4-(tetrahydro-2H-pyran-4-yloxy)phenyl]pyrimidin-2-yl}amino)phenyl]-1-methyl-1H-pyrazole-3-carboxamide], the IC50 on IKKε was less than 5 nM; in assay [1] it was 100 to 250 nM.

Regarding `N#Cc1cc(-c2ccnc(Nc3ccc(F)c(OC4CCNC4)c3)n2)ccc1OC1CCOCC1` (stereo not shown) [compound 541, 5-(2-{[4-Fluoro-3-(pyrrolidin-3-yloxy)phenyl]amino}pyrimidin-4-yl)-2-(tetrahydro-2H-pyran-4-yloxy)benzonitrile], the IC50 at IKKε is less than 5 nM; in assay [1], 100 to 250 nM.

For the compound `CN(C)C1CCN(C(=O)Nc2cccc(Nc3nccc(-c4ccc(OC5CCOCC5)c(C#N)c4)n3)c2)C1` (stereo not shown) [compound 667, N-[3-({4-[3-Cyano-4-(tetrahydro-2H-pyran-4-yloxy)phenyl]pyrimidin-2-yl}amino)phenyl]-3-(dimethylamino) pyrrolidine-1-carboxamide], the IC50 on IKKε is less than 5 nM; in assay [1], less than 100 nM.

Turning to `COCC(=O)Nc1cccc(Nc2nccc(-c3ccc(OC4CCOCC4)c(C#N)c3)n2)c1` [compound 647, N-[3-({4-[3-Cyano-4-(tetrahydro-2H-pyran-4-yloxy)phenyl]pyrimidin-2-yl}amino)phenyl]-2-methoxyacetamide], the concentration for half-maximal inhibition (IC50) on IKKε was less than 5 nM; in assay [1], less than 100 nM.
